Reference: ChEMBL document CHEMBL4715879, “Total Synthesis of the Antitumor-Antitubercular 2,6'-Bijuglone Natural Product Diospyrin and Its 3,6'-Isomer” (J Nat Prod, 2020)

Assays:
[1] = Inhibition of Mycobacterium tuberculosis DNA gyrase assessed as reduction in DNA supercoiled DNA formation incubated for 30 mins by […] analysis
[2] = Antiproliferative activity against mouse NS-1 cells assessed as reduction in cell viability after 48 hrs by resazurin dye based assay; assay type: functional; details: NS1, 48 h
NFF [3] = experiment: Cytotoxicity against human NFF cells assessed as reduction in cell viability after 48 hrs by resazurin dye based assay
[4] = Selectivity index, ratio of IC50 for cytotoxicity against human NFF cells to […] for antiproliferative activity against mouse NS-1 cells
NFF [5] = experiment: Cytotoxicity against human NFF cells assessed as reduction in cell viability at 1 mM after 48 hrs by resazurin dye based assay relative to control; details: 1000 µM

Cc1cc2c(c(O)c1-c1c(C)cc(O)c3c1C(=O)C=CC3=O)C(=O)C=CC2=O
IC50 [1]: 100 µM

COc1cc(C)cc2c1C(=O)C=C(c1c(C)cc3c(c1OC)C(=O)C=CC3=O)C2=O
IC50 [2]: 0.8 µM
IC50 (NFF [3]): 25.7 µM
Ratio IC50 [4]: 31

Cc1cc(O)c2c(c1)C(=O)C=C(c1c(C)cc3c(c1O)C(=O)C=CC3=O)C2=O
IC50 [2]: 1.8 µM
IC50 (NFF [3]): 31.8 µM
Ratio IC50 [4]: 14

O=C(O)c1cn(C2CC2)c2cc(N3CCNCC3)c(F)cc2c1=O [CIPROFLOXACIN]
IC50 [1]: 10 µM

Cc1cc(O)c2c(c1)C(=O)C(c1c(C)cc3c(c1O)C(=O)C=CC3=O)=CC2=O [DIOSPYRIN]
IC50 [1]: 15 µM
IC50 [2]: 0.8 µM
IC50 (NFF [3]): 5.8 µM
Ratio IC50 [4]: 10

O=c1[nH]cc(F)c(=O)[nH]1 [FLUOROURACIL]
IC50 [2]: 2.8 µM
Ratio IC50 [4]: >352
Activity (NFF [5]): 13%

Cc1cc(O)c2c(c1)C(=O)C=C(c1c(C)cc(O)c3c1C(=O)C=CC3=O)C2=O [NEODIOSPYRIN]
IC50 [1]: 50 µM

Cc1cc(O)c2c(c1)C(=O)C=CC2=O [RAMENTACEONE]
IC50 [2]: 0.5 µM
IC50 (NFF [3]): 7.6 µM
Ratio IC50 [4]: 15
